Experimental findings from a melting point compilation (Tetko et al.; mined from patent text by program, amines drawn as free bases though some values may be those of a salt) are described below.

In general, melting point refers to the temperature of the solid-liquid transition. Take `CCOC(=O)c1nc2c(=O)[nH]c3ccc(-n4ccnc4)cc3n2c1C`: the melting point is greater than 250 °C.

On to `COc1ccc(O[C@@H]2CN(Cc3ccccc3)C[C@H]2O)cc1` (relative stereo), for which the melting point was in the range of 84 to 85 °C.

Consider `O=c1cc(-c2ccccc2)oc2cc(OCCCCCCN3CCCCC3)cc(O)c12`, for which the melting point was found to be 103 °C.

The compound `CCCNC(=O)N(C)C1CCN(c2ncnc3cc(OC)c(OC)cc23)CC1` had a melting point of 209 to 211 °C.

The compound `N=C(NC1CC1)N[N+](=O)[O-]` had a melting point of 127 to 130 °C.

Take `Cc1ccc(S(=O)(=O)NCc2ccccc2)cc1`: the melting point lay in the range of 115 to 116 °C.

Compound `O=C(NC1(Cc2ccccc2)CCN(Cc2ccccc2)CC1)N1CCCC1` yielded a melting point of 126 °C.

`N#CC(=C(O)c1ccncc1)c1ccc(F)cc1` came in with a melting point of 225 °C.

Turning to `CC(C(=O)O)c1cccc(NC(=O)NCC(=O)N2[C@@H](c3cccc(F)c3F)SC[C@H]2C(=O)OC(C)(C)C)c1` (stereo partly drawn), the melting point came to 130 °C.

The compound `COC(=O)c1cc(C23CC4CC(CC(C4)C2)C3)c(O)cc1O` came in with a melting point of 167 to 169 °C.

As to `NC(=O)c1nc(-c2cccc(O)c2)nc2c1[nH]c(=O)n2C1CCOCC1`, the melting point lay within 361 to 363 °C.

Take `C=C(Nc1nc(-c2ccccc2)c(-c2nc3ccccc3c(=O)n2-c2ccc(OC)cc2)s1)c1ccco1`: the melting point lay within 262 to 264 °C.

`CCCCc1nn(-c2ccccc2C(F)(F)F)c(=O)n1Cc1ccc(-c2ccccc2S(=O)(=O)NC(=O)OC(C)(C)C)cc1F` came in with a melting point of 83 to 85 °C.

In turn, `CCc1ccc2oc(=O)c(NC(=O)Nc3ccc(F)cc3F)c(-c3ccccc3C)c2c1` registered a melting point of 210 to 211 °C.

Consider `CC(C)[C@H]1C[C@@H]([C@H](CC2CCCCC2)NC(=O)OCc2ccccc2)OC1=O`, for which the melting point was in the range of 117 to 118 °C.

`Cc1cnc(C(=O)NCCO[N+](=O)[O-])s1` came in with a melting point of 110 to 112 °C.

In the case of `Cc1ccc(OC(C)C)c(-c2cc(=O)c3cc(C(=O)O)ccc3o2)c1`, the melting point lay in the range of 209 to 210 °C.

In turn, `CCC(=O)Nc1c(Cl)cc(Cl)c(-c2nsc(C(F)(F)F)c2Cl)c1Br` yielded a melting point of 156 °C.

Compound `Cc1oc(-c2ccccc2)nc1COc1ccc(COc2nn(-c3ccccc3)cc2CC(=O)O)cc1` returned a melting point of 151 to 152 °C.

On to `CCOC(=O)c1nccn1Cc1ccccc1[N+](=O)[O-]`, for which the melting point was in the range of 107 to 111 °C.

In turn, `Cc1oc(=O)c(Nc2ccccc2F)nc1Cl` gave a melting point of 126 to 129 °C.

As for `COc1ccc(Cl)cc1C(=O)NCCc1ccc(CCCCCCCC(=O)O)cc1`, the melting point was in the range of 103 to 106 °C.

For the compound `O=C(NCC12CC3CC(CC(C3)C1)C2)c1cc(-c2cc(F)cnc2N2CCC(C(=O)O)CC2)ccc1Cl`, the melting point was in the range of 130 to 135 °C.

On to `CCCc1nc(Cl)c(C=O)n1Cc1ccc(-c2ccccc2-c2nnn[nH]2)cc1`, for which the melting point was in the range of 165 to 167 °C.

`O=C1CCC(=O)C1C(=O)CCc1ccc(Cl)c(Cl)c1` registered a melting point of 126 to 127 °C.

Take `O=C(O)C1Cc2cc(CCNS(=O)(=O)c3ccccc3)ccc2O1` (stereo not drawn): the melting point was in the range of 132 to 133 °C.

With `CNc1ccc(C#Cc2cccc(-c3nc(NC)nc4cc(OC)c(OC)cc34)c2)cn1`, the melting point was 136 to 138 °C.

Consider `O=C(Nc1nccs1)C(CC1CCCC1)c1ccc(Cl)c(Cl)c1` (stereo not drawn), for which the melting point was 120 to 122 °C.

Compound `C[C@H](c1ccccc1)n1c(O)nc2c(Cl)nc3ccccc3c21` returned a melting point of 227 to 229 °C.

Compound `COC=C(C(=O)OC)c1ccccc1CON=C(C)C(=NOC)c1ccc(CCc2ccc(Cl)cc2Cl)cc1` gave a melting point of 112 to 114 °C.

`Cc1nn(C)c2nc3n(c(=O)c12)CCS3`: the melting point lay within 229 to 230 °C.

For `COc1ccccc1N(CCN1CCC(C(=O)c2ccc(F)cc2)CC1)C(=O)c1ccc(C#N)cc1`, the melting point is 155 to 158 °C.

With `COc1ccc(OCCO[N+](=O)[O-])c(C2NC(C(=O)O)CS2)c1` (stereo not drawn), the melting point was 110 to 112 °C.
